Experimental data published in patent US10781224B2, “Bis(oxymethyl)phosphinic acid and biogenic metal salts thereof as regulators of plant growth and development” (priority 2016, dated 2020).

Legend:
Format in all cases: in vivo
rice (Diamant variety) = experiment: Rice seed treatment with BHMPA salts: germination energy and germination rate
In short: (§1)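 Corn, winter wheat and rice seeds (50 per dish, on filter paper) were soaked for 1 h in BHMPA or its metal salts at 1·10^−6-1·10^−12%, with water as control. Germination energy was read on day 4 and germination rate on day 8 for wheat and day 7 for rice and corn, following GOST 12038-84, as the mean of four replicates.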

[1] = test system: corn (Krasnodar 385 MV variety); experiment: Corn seed treatment with BHMPA salts: germinating power
In short: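 Seeds (50 per Petri dish on two layers of filter paper) soaked 1 h in BHMPA or its Ca, Mg, Na, Co, Mn, Cu or Zn salts at 1·10^−6-1·10^−12%, with water controls. Germination energy read on day 4, germination on day 8 (wheat) or day 7 (rice, corn), as % means of four replicates. Germinating power taken as root and sprout length plus wet and dry mass per 100 seedlings.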

[2] = test system: winter wheat (Vershin variety); experiment: Winter wheat seed treatment with BHMPA salts: germination energy and germination rate
In short: as §1

[3] = rice seed treatment, solution 1 · 10^−10%
[4] = seed treatment, concentration 1 · 10^−6%
[5] = seed treatment, concentration 1 · 10^−7%
[6] = seed treatment, concentration 1 · 10^−8%
[7] = seed treatment, concentration 1 · 10^−9%
[8] = seed treatment, concentration 1 · 10^−10%
[9] = seed treatment, concentration 1 · 10^−11%
[10] = seed treatment, concentration 1 · 10^−12%
[11] = corn seeds, solution concentration 1 · 10^−6%, magnesium salt of BHMPA
[12] = corn seeds, solution concentration 1 · 10^−7%, magnesium salt of BHMPA
[13] = corn seeds, solution concentration 1 · 10^−8%, magnesium salt of BHMPA
[14] = corn seeds, solution concentration 1 · 10^−9%, magnesium salt of BHMPA
[15] = corn seeds, solution concentration 1 · 10^−10%, magnesium salt of BHMPA
[16] = corn seeds, solution concentration 1 · 10^−11%, magnesium salt of BHMPA
[17] = corn seeds, solution concentration 1 · 10^−12%, magnesium salt of BHMPA
[18] = corn, over the tested concentrations
[19] = winter wheat Vershin, 1·10^−6% solution
[20] = winter wheat Vershin, 1·10^−7% solution
[21] = winter wheat Vershin, 1·10^−8% solution
[22] = winter wheat Vershin, 1·10^−9% solution
[23] = winter wheat Vershin, 1·10^−10% solution
[24] = winter wheat Vershin, 1·10^−11% solution
[25] = winter wheat Vershin, 1·10^−12% solution
[26] = winter wheat, comparative study vs Melaphen, 1·10^−11% solution

O=P([O-])(CO)CO.O=P([O-])(CO)CO.[Mg+2] [Mg-salt, Magnesium BHMPA Salt]
Germination energy, % (rice (Diamant variety); [3]): 87.5% | Germination rate, % (rice (Diamant variety); [3]): 94.0% | Germination energy (rice (Diamant variety); rice, 1·10^−10% solution): 86.3% | Germination rate (rice (Diamant variety); rice, 1·10^−10% solution): 92.7% | Germination energy (rice (Diamant variety); [4]): 77.7% | Germination rate (rice (Diamant variety); [4]): 83.3% | Germination energy (rice (Diamant variety); [5]): 80.3% | Germination rate (rice (Diamant variety); [5]): 85.0% | Germination energy (rice (Diamant variety); [6]): 81.7% | Germination rate (rice (Diamant variety); [6]): 87.3% | Germination energy (rice (Diamant variety); [7]): 84.3% | Germination rate (rice (Diamant variety); [7]): 90.7% | Germination energy (rice (Diamant variety); [8]): 86.3% | Germination rate (rice (Diamant variety); [8]): 92.7% | Germination energy (rice (Diamant variety); [9]): 83.3% | Germination rate (rice (Diamant variety); [9]): 89.3% | Germination energy (rice (Diamant variety); [10]): 79.3% | Germination rate (rice (Diamant variety); [10]): 84.7% | optimum concentration for treating corn seeds before sowing ([1]; corn): 1·10^−9% | Length, root [1, 11]: 6.4 cm | Length, root, + % to control [1, 11]: 21% | Length, sprout [1, 11]: 2.9 cm | Length, sprout, + % to control [1, 11]: −12% | Mass, dry, root [1, 11]: 1.60 g/100 plantlings | Mass, dry, root, + % to control [1, 11]: 9.5% | Mass, dry, sprout [1, 11]: 1.07 g/100 plantlings | Mass, dry, sprout, + % to control [1, 11]: 11% | Mass, wet, root [1, 11]: 10.29 g/100 plantlings | Mass, wet, root, + % to control [1, 11]: 17% | Mass, wet, sprout [1, 11]: 7.17 g/100 plantlings | Mass, wet, sprout, + % to control [1, 11]: 12% | Length, root [1, 12]: 7.0 cm | Length, root, + % to control [1, 12]: 32% | Length, sprout [1, 12]: 3.3 cm | Length, sprout, + % to control [1, 12]: 0% | Mass, dry, root [1, 12]: 1.81 g/100 plantlings | Mass, dry, root, + % to control [1, 12]: 24% | Mass, dry, sprout [1, 12]: 1.12 g/100 plantlings | Mass, dry, sprout, + % to control [1, 12]: 17% | Mass, wet, root [1, 12]: 10.86 g/100 plantlings | Mass, wet, root, + % to control [1, 12]: 24% | Mass, wet, sprout [1, 12]: 7.93 g/100 plantlings | Mass, wet, sprout, + % to control [1, 12]: 23.5% | Length, root [1, 13]: 8.5 cm | Length, root, + % to control [1, 13]: 60% | Length, sprout [1, 13]: 3.5 cm | Length, sprout, + % to control [1, 13]: 6% | Mass, dry, root [1, 13]: 1.91 g/100 plantlings | Mass, dry, root, + % to control [1, 13]: 31% | Mass, dry, sprout [1, 13]: 1.19 g/100 plantlings | Mass, dry, sprout, + % to control [1, 13]: 24% | Mass, wet, root [1, 13]: 11.64 g/100 plantlings | Mass, wet, root, + % to control [1, 13]: 33% | Mass, wet, sprout [1, 13]: 8.89 g/100 plantlings | Mass, wet, sprout, + % to control [1, 13]: 38% | Length, root [1, 14]: 9.1 cm | Length, sprout [1, 14]: 3.8 cm | Mass, dry, root [1, 14]: 2.02 g/100 plantlings | Mass, dry, root, + % to control [1, 14]: 38% | Mass, dry, sprout [1, 14]: 1.27 g/100 plantlings | Mass, dry, sprout, + % to control [1, 14]: 32% | Mass, wet, root [1, 14]: 12.42 g/100 plantlings | Mass, wet, root, + % to control [1, 14]: 42% | Mass, wet, sprout [1, 14]: 10.35 g/100 plantlings | Mass, wet, sprout, + % to control [1, 14]: 61% | Length, root [1, 15]: 8.3 cm | Length, root, + % to control [1, 15]: 57% | Length, sprout [1, 15]: 3.6 cm | Length, sprout, + % to control [1, 15]: 9% | Mass, dry, root [1, 15]: 1.96 g/100 plantlings | Mass, dry, root, + % to control [1, 15]: 34% | Mass, dry, sprout [1, 15]: 1.20 g/100 plantlings | Mass, dry, sprout, + % to control [1, 15]: 25% | Mass, wet, root [1, 15]: 11.86 g/100 plantlings | Mass, wet, root, + % to control [1, 15]: 35% | Mass, wet, sprout [1, 15]: 8.62 g/100 plantlings | Mass, wet, sprout, + % to control [1, 15]: 34% | Length, root [1, 16]: 8.1 cm | Length, root, + % to control [1, 16]: 53% | Length, sprout [1, 16]: 3.0 cm | Length, sprout, + % to control [1, 16]: −9% | Mass, dry, root [1, 16]: 1.81 g/100 plantlings | Mass, dry, root, + % to control [1, 16]: 24% | Mass, dry, sprout [1, 16]: 1.10 g/100 plantlings | Mass, dry, sprout, + % to control [1, 16]: 14.5% | Mass, wet, root [1, 16]: 10.04 g/100 plantlings | Mass, wet, root, + % to control [1, 16]: 14% | Mass, wet, sprout [1, 16]: 8.18 g/100 plantlings | Mass, wet, sprout, + % to control [1, 16]: 27% | Length, root [1, 17]: 7.8 cm | Length, root, + % to control [1, 17]: 47% | Length, sprout [1, 17]: 2.8 cm | Length, sprout, + % to control [1, 17]: −15% | Mass, dry, root [1, 17]: 1.57 g/100 plantlings | Mass, dry, root, + % to control [1, 17]: 7.5% | Mass, dry, sprout [1, 17]: 0.94 g/100 plantlings | Mass, dry, sprout, + % to control [1, 17]: −2% | Mass, wet, root [1, 17]: 9.18 g/100 plantlings | Mass, wet, root, + % to control [1, 17]: 5% | Mass, wet, sprout [1, 17]: 7.04 g/100 plantlings | Mass, wet, sprout, + % to control [1, 17]: 10% | Length, root, + % to control ([1]; corn, 1·10^−9% solution): 72% | Length, sprout, + % to control ([1]; corn, 1·10^−9% solution): 15% | Mass, dry, root, + % to control ([1]; corn, 1·10^−9% solution): 38% | Mass, dry, sprout, + % to control ([1]; corn, 1·10^−9% solution): 32% | Mass, wet, root, + % to control ([1]; corn, 1·10^−9% solution): 42% | Mass, wet, sprout, + % to control ([1]; corn, 1·10^−9% solution): 61% | increase of germinating power of the roots [1, 18]: 21%-72% | sprout length changes [1, 18]: −15% to +15% | Germination energy [2, 19]: 85.0% | Germination rate [2, 19]: 89.3% | Germination energy [2, 20]: 88.4% | Germination rate [2, 20]: 92.0% | Germination energy [2, 21]: 88.8% | Germination rate [2, 21]: 92.0% | Germination energy [2, 22]: 89.3% | Germination rate [2, 22]: 93.0% | Germination energy [2, 23]: 89.9% | Germination rate [2, 23]: 93.3% | Germination energy [2, 24]: 93.1% | Germination rate [2, 24]: 96.0% | Germination energy [2, 25]: 90.0% | Germination rate [2, 25]: 93.3% | Germination energy [2, 26]: 93.3% | Germination rate [2, 26]: 96.7%
